One compound from patent US20220265646A1, “PIEZO AGONISTS FOR PREVENTING OR REVERTING ABNORMAL AMYLOID DEPOSITION” (ITÄ-SUOMEN YLIOPISTO, priority 2019, published 2022) can be followed below.

One assay deals with primary cortical neurons. As to the kind of experiment: Measurement of neurite outgrowth in primary cortical neurons. It is filed as cell-based, mouse. The following applies: 5 μM Yoda1, imaging over 150 hours, versus vehicle. As to the method: Measurement of neurite outgrowth in primary cortical neurons. Primary cortical neuron cultures were prepared from mouse embryos of embryonic day 15. The cortices were dissected, and tissue dissociated with 0.0125% trypsin (for 15 min at 37° C., Sigma-Aldrich, St. Louis, Mo., USA). After trypsin inactivation and washing the cells were counted and plated on 48-well-plates (coated with poly-D-lysine, Sigma-Aldrich, St. Louis, Mo., USA) at a density of 125 000 cells/well or on 6-well-plates at a density of 1.8 million cells/well in Neurobasal media supplemented with 2% B27 and 500 μM L-glutamine (all ThermoFisher Scientific, Waltham, Mass., USA) and 10 μg/ml of gentamicin (Sigma Aldrich, St. Louis, Mo., USA). On day 3 or 5 in vitro (DIV) the neurons were fed by changing 50% of media. The neurons were placed in IncuCyte® S3 Live Cell Analysis System (Essen
BioScience Ltd., Hertfordshire, UK) on DIV 0 and treated with 5 μM Yoda1 (Tocris, Bio-Techne Ltd., Abingdon, Oxfordshire, UK) once on DIV 0 or daily until DIV 7, and images were taken every 8 hours for the analysis of neurite length and branch points.

Another assay concerns N2a cells. As to the kind of experiment: Apoptosis assay in N2a cells under hypoxia. The assay is classed as cell-based. Conditions: 5 μM Yoda1 three days, 1% hypoxia 24 h. As to the method: Apoptosis assay in N2a cells. N2a cells were treated with 5 μM Yoda1 or vehicle for three consecutive days and exposed to 1% hypoxia as described above for 24 h before collecting the cells for apoptosis assay. The apoptotic cells were labeled with APC Annexin Ready Flow -dye (1:12.5 dilution, Invitrogen, Carlsbad, Calif., USA) in Annexin V Binding Buffer (10 mM HEPES, 150 mM NaCl, 2.5 mM CaCl2 in PBS, pH 7.4). 4′,6-Diamidino-2-Phenylindole, Dilactate (DAPI; Invitrogen, Carlsbad, Calif., USA) staining was added at 1:3300 dilution to label late apoptotic and necrotic cells. The samples were run with CytoFLEX S instrument (Beckman Coulter Life Sciences, Indianapolis, Ind., USA), and the results were analysed with CytExpert software (version 2.3.0.84, Beckman Coulter Life Sciences, Indianapolis, Ind., USA). The results of hypoxic samples were normalized to corresponding normoxic samples.

For assay [1], the system named is Balb-c mice subjected to pMCAo. Nature of the assay: Permanent middle cerebral artery occlusion (pMCAo) ischemic stroke model: MRI lesion size and adhesive removal test. It is filed as in vivo, mouse. Conditions: 1.78 mg/kg i.v. How it is done: Permanent middle cerebral artery occlusion for modelling ischemic stroke and treatment with Yoda. Balb-c mice were subjected to permanent middle cerebral artery occlusion (pMCAo). The anaesthesia was induced by 5% isoflurane in 30% oxygen and 70% nitrogen as a carrier gas and maintained with 2% isoflurane during the surgical operation. The temperature was kept constant (37 ±1° C.) using the heating blanket connected to the rectal probe (Harvard apparatus, PanLab, Barcelona, Spain). The temporal muscle was detached from the scull and a hole (1 mm of diameter) was drilled to temporal bone. After removing the dura the exposed left MCA was lifted and occluded using a thermocoagulator (Aaron Medical Industries Inc., Clearwater, Fla., USA). […]
Lesion size measurement. The lesion volume was measured in vivo at 24 h and 72 h post ischemia by magnetic resonance imaging (MRI) using a vertical 9.4 T Oxford NMR 400 magnet (Oxford Instrument PLC, Abington, UK). […] Multislice T2-weighted images (repetition time 3000 ms, echo time 40 ms, matrix size 128×256, field of view 19.2×19.2 mm^2, slice thickness 0.8 mm and number of slices 12) were taken and the obtained images were analyzed with in-house made Aedes software under the Matlab environment (Math-works, Natick, Mass., USA).

Structures are written as SMILES.

With `Clc1cccc(Cl)c1CSc1nnc(-c2cnccn2)s1` [Yoda1], in the assay with primary cortical neurons, the “branch points of neurites” value is on record as “more branching points” and the neurite length entry was “extended neurite length”. Moreover, in the assay on N2a cells, the hypoxia-induced early apoptosis entry is “almost completely block” and the hypoxia-induced late apoptosis entry is listed as “almost completely block”. The “lesion size measured with MRI” value in assay [1] (1 DPI and 3 DPI, versus vehicle) is on record as “significantly smaller lesion size”. The “ability to sense adhesive patches post stroke (adhesive removal test)” value in assay [1] (ischemic mice) is listed as “no apparent deficits”.
